Measured values: PubChem BioAssay (NCI)
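All cell lines were grown in 96-well plates and treated with compound for 48 hours. Definition used: TGI = concentration required for complete inhibition of growth.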

Columns and labels:
Assay in all cases: DTP human tumour cell line panel, 48 h
[1] = system: SF-268 CNS
[2] = system: 786-0 renal
[3] = system: UO-31 renal
[4] = system: DU-145 prostate
[5] = system: TK-10 renal
[6] = system: NCI/ADR-RES ovarian
[7] = system: CCRF-CEM leukemia
[8] = system: U251 CNS
[9] = system: COLO 205 colon
[10] = system: MOLT-4 leukemia
[11] = system: OVCAR-3 ovarian
[12] = system: SF-295 CNS
[13] = system: OVCAR-4 ovarian
[14] = system: ACHN renal
[15] = system: EKVX NSCLC
[16] = system: HCT-116 colon
[17] = system: MALME-3M melanoma
[18] = system: HCT-15 colon
[19] = system: OVCAR-8 ovarian
[20] = system: A498 renal
[21] = system: UACC-257 melanoma
[22] = system: RXF 393 renal
[23] = system: NCI-H226 lung
[24] = system: LOX IMVI melanoma
[25] = system: NCI-H522 lung
[26] = system: K-562 leukemia
[27] = system: SF-539 CNS
[28] = system: SK-OV-3 ovarian
[29] = system: KM12 colon
[30] = system: A549 NSCLC
[31] = system: HS 578T breast
[32] = system: IGROV1 ovarian
[33] = system: MCF7 breast
[34] = system: SR leukemia
[35] = system: HL-60(TB) leukemia
[36] = system: OVCAR-5 ovarian
[37] = system: HT29 colon
[38] = system: SNB-75 CNS
[39] = system: T-47D breast
[40] = system: SK-MEL-28 melanoma
[41] = system: HOP-92 NSCLC
[42] = system: CAKI-1 renal
[43] = system: SW-620 colon
[44] = system: HOP-62 NSCLC
[45] = system: SK-MEL-5 melanoma
[46] = system: RPMI-8226 leukemia
[47] = system: HCC-2998 colon
[48] = system: PC-3 prostate
[49] = system: MDA-MB-231 breast
[50] = system: NCI-H23 lung
[51] = system: SN12C renal
[52] = system: MDA-N
[53] = system: SK-MEL-2 melanoma
[54] = system: NCI-H460 lung
[55] = system: SNB-19 CNS
[56] = system: MDA-MB-435
[57] = system: M14 melanoma

Measured: TGI

O=C(NC(O)(C(F)(F)F)C(F)(F)F)c1ccccc1
> 100 µM: all assays above
